Experimental data reported in PubChem BioAssay (NCI).
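Step 1: Grow cells in 96-well plates. Step 2: Expose to compound for 48 hours at 5 concentrations. Step 3: Interpolate endpoints linearly; if unreached, use highest concentration. GI50 marks 50% less growth. TGI marks complete inhibition of growth.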 Where a SMILES comes first, the peptide text is derived from it. [ ]: non-standard residue; d: D form. ξ: configuration not given here. Pentanoyl(2-O,4-OH,5-Cl) = O=C(O)C(O)CC(O)CCl; Ile(3ξ) = CCC(C)[C@H](N)C(=O)O; NMeV = CN[C@H](C(=O)O)C(C)C; NMeA = CN[C@@H](C)C(=O)O; βAla = NCCC(=O)O

Experiments:
Test in all cases: NCI tumour cell line growth inhibition, 48 h
[1] = tested on: SNB-78 CNS
[2] = tested on: DLD-1 colon
[3] = tested on: HOP-18 NSCLC
[4] = tested on: KM20L2 colon
[5] = tested on: XF 498 CNS
[6] = tested on: DMS 273 small cell lung
[7] = tested on: M19-MEL melanoma
[8] = tested on: RXF-631 renal
[9] = tested on: MDA-N
[10] = tested on: P388/ADR leukemia
[11] = tested on: SN12K1 renal
[12] = tested on: P388 leukemia

SMILES | TGI [1] | TGI [2] | TGI [3] | TGI [4] | TGI [5] | TGI [6] | TGI [7] | TGI [9] | also measured
CCOc1ccc2c(c1)[n+]([O-])c(C(N)=O)c(N)[n+]2[O-] | > 100 µM | > 100 µM | > 100 µM | > 100 µM | > 100 µM | > 100 µM | > 100 µM | – | –
CC(C)N1CCOC(c2ccc(O)c(O)c2)C1 (centres undefined) | > 100 µM | > 100 µM | – | > 100 µM | > 100 µM | > 100 µM | > 100 µM | – | TGI [8]: > 100 µM
O=C(O)c1c2c(c(O)c3c1CN(C1CCCCC1)CO3)OCN(C1CCCCC1)C2 | – | – | – | – | – | – | – | > 100 µM | –
Cc1cccc(-c2nc(=S)[nH][nH]2)c1 | > 100 µM | > 100 µM | > 100 µM | > 100 µM | > 100 µM | > 100 µM | > 100 µM | – | TGI [8]: > 100 µM
CC1=NC2(C(=O)O)C3(C(=O)O)N=C(C)OC3(C(F)(F)F)C2(C(F)(F)F)O1 (centres undefined) | > 100 µM | > 100 µM | > 100 µM | > 100 µM | > 100 µM | > 100 µM | > 100 µM | – | –
CC(C)OC(=O)Nc1c([N+](=O)[O-])cc(C(F)(F)F)cc1[N+](=O)[O-] | > 100 µM | > 100 µM | > 100 µM | > 100 µM | > 55.7 µM | > 100 µM | – | > 100 µM | –
COc1cc(OC)c(OC)cc1/C=C/c1ccccn1 | – | – | – | – | – | – | – | > 10 µM | –
CCOc1ccc2c(c1)[n+]([O-])c(-c1ccccc1)c(N)[n+]2[O-] | – | > 100 µM | > 100 µM | > 100 µM | > 100 µM | > 100 µM | > 100 µM | – | –
O=S(=O)(c1ccccc1)N1CCC1c1ccccc1 (centres undefined) | > 100 µM | – | > 100 µM | > 100 µM | > 100 µM | > 100 µM | > 100 µM | – | TGI [8]: > 100 µM
Cc1cc[c]([Sb]2[O]C(CO)C(C(O)C(O)C(=O)O)[O]2)cc1 (centres undefined) | – | – | – | – | – | – | – | > 100 µM | GI50 [9]: 43.5 µM
O=C1c2ccccc2C(=O)N1C/C=N/NS(=O)(=O)c1cccc([N+](=O)[O-])c1 | – | > 100 µM | – | > 100 µM | > 100 µM | > 100 µM | > 100 µM | – | –
O=c1cc(-c2cccc(Cl)c2)[nH]c2cc3c(cc12)OCO3 | – | 8.57 µM | 34.4 µM | – | 13.8 µM | 75 µM | 75 µM | 0.158 µM | –
[O-]c1ccccc1C=NCCN=Cc1ccccc1[O-].[O]=[U+2]=[O] | – | > 100 µM | > 77.1 µM | > 100 µM | – | > 100 µM | > 66.3 µM | – | GI50 [2]: 27 µM; GI50 [3]: 31.2 µM; GI50 [4]: > 100 µM; GI50 [6]: 32.5 µM; GI50 [7]: 32.2 µM
CCN(CC)CC(C(=O)Nc1c(C)cccc1C)/C(C)=N\NC(=S)NN (centres undefined) | – | > 100 µM | – | > 100 µM | > 100 µM | > 100 µM | > 100 µM | – | TGI [8]: > 100 µM
OC(c1ccccc1)c1c(-c2ccccc2)[nH]c(-c2ccccc2)c1C(O)c1ccccc1 (centres undefined) | – | – | – | – | – | – | – | 7.2 µM | –
NCCNCCNCc1c2ccccc2c(CNCCNCCN)c2ccccc12 | > 100 µM | > 100 µM | > 100 µM | > 100 µM | > 100 µM | – | > 100 µM | – | –
CSC(=Nc1ccc([N+](=O)[O-])cc1C#N)NC(=O)c1ccccc1 | > 100 µM | > 100 µM | > 100 µM | > 100 µM | > 100 µM | – | > 100 µM | – | TGI [8]: > 100 µM
CCN(CC)C(=O)c1cccc2c(OC)ccc(OC)c12 | – | > 100 µM | > 100 µM | > 100 µM | – | > 100 µM | > 100 µM | – | –
CS(=O)(=O)N(CCC#N)c1ccc(/C=C2\N=C(c3ccccc3Cl)OC2=O)cc1 | > 100 µM | > 100 µM | – | > 100 µM | > 100 µM | > 100 µM | > 100 µM | – | –
O=c1c(-c2cccc3ccccc23)c(-c2cccc3ccccc23)c1=O | > 100 µM | > 100 µM | > 100 µM | 1.59 µM | 99 µM | 13.2 µM | > 100 µM | – | –
CC1COS(=O)N1c1ccccc1 (centres undefined) | – | > 100 µM | > 100 µM | > 100 µM | > 100 µM | > 100 µM | > 100 µM | – | –
O=C(c1ccccc1)c1nc2ccc(Cl)cc2cc1C(Br)Br | – | 0.706 µM | 1.31 µM | 0.808 µM | 2.5 µM | 0.966 µM | 1.49 µM | – | –
CCC(C)[C@@H]1NC(=O)[C@@H]2CCCN2C(=O)C(CC(O)CCl)OC(=O)CCNC(=O)[C@H](C)N(C)C(=O)[C@H](C(C)C)N(C)C1=O (some centres undefined) (cyclo([Ile(3ξ)][NMeV][NMeA][βAla][Pentanoyl(2-O,4-OH,5-Cl)]P)) | – | – | – | – | – | – | – | > 100 µM | –

SMILES | TGI [1] | TGI [2] | TGI [3] | TGI [4] | TGI [5] | TGI [6] | TGI [7] | TGI [9] | also measured
COc1ccc(C(O)C(c2ccc(OCc3ccccc3)cc2)c2ccc(OCc3ccccc3)cc2)cc1 (centres undefined) | > 100 µM | > 100 µM | – | > 100 µM | > 100 µM | > 100 µM | > 100 µM | – | –
CC(NC(=O)c1ccc(Cl)c(Cl)c1)c1ccc(-c2ccccc2)cc1 (centres undefined) | – | – | – | – | – | – | – | > 100 µM | –
CC(C)CC(NC(=O)C(O)C(N)Cc1ccccc1)C(=O)O (centres undefined) | – | – | – | – | – | – | – | > 100 µM | –
CC(C)(Sc1cc(C(C)(C)C)c(O)c(C(C)(C)C)c1)Sc1cc(C(C)(C)C)c(O)c(C(C)(C)C)c1 | – | – | – | – | – | – | – | > 100 µM | –
CCOP(=O)(OCC)C(C(=O)OC)C(=O)C(=O)Nc1cccc([N+](=O)[O-])c1 (centres undefined) | > 100 µM | > 100 µM | > 100 µM | > 100 µM | > 100 µM | > 100 µM | > 100 µM | – | TGI [8]: > 100 µM
COc1cccc(C2CC(C)(O)Oc3cc4c(cc32)OCO4)c1 (centres undefined) | – | – | – | – | – | – | – | 7.84 µM | –
O=C(O)C1CCCN1 (centres undefined) | – | – | – | – | – | – | – | > 100 µM | –
COc1ccc2c(c1[N+](=O)[O-])CC[C@@H]1[C@@H]2CC[C@]2(C)C(=O)CC[C@@H]12 | 25 µM | > 25 µM | > 25 µM | > 25 µM | 25 µM | > 25 µM | > 25 µM | > 1000 µM | TGI [10]: 25 µM; TGI [11]: > 25 µM; TGI [12]: > 25 µM; GI50 [9]: > 25 µM
O=c1oc2ccccc2cc1P(=O)(O)O | – | – | – | – | – | – | – | > 100 µM | –
C[C@]12CC[C@H]3[C@@H](CCC4=CC(=O)CC[C@@]43C)[C@]1(O)CC[C@]2(O)C(=O)CO | – | – | – | – | – | – | – | > 100 µM | –
Clc1ccc(NCNC2Nc3ccccc3N2)cc1Cl | – | – | – | – | – | – | – | > 100 µM | –
O=NN(CC1(O)OCC(O)C(O)C1O)C(Cc1c[nH]c2ccccc12)C(=O)O (centres undefined) | > 100 µM | > 100 µM | – | > 100 µM | > 100 µM | > 100 µM | > 100 µM | – | TGI [8]: > 100 µM
CN(C)C(=C1C(Br)=C(Br)C(Br)=C1Br)N(C)C | – | > 100 µM | > 100 µM | > 100 µM | – | > 100 µM | > 100 µM | – | –
O=C1C2C3SC(c4cc5ccccc5cc43)C2C(=O)N1c1ccccc1 (centres undefined) | > 100 µM | – | > 100 µM | > 100 µM | – | > 100 µM | > 100 µM | – | TGI [8]: > 100 µM
O=C(O)c1ccccc1NS(=O)(=O)c1ccc(Cl)cc1 | > 100 µM | > 100 µM | > 100 µM | > 100 µM | > 100 µM | > 100 µM | > 100 µM | – | –
CN(C)CCN1C(=O)c2cccc3cc(N)cc(c23)C1=O | – | 27.7 µM | 33.7 µM | 23.5 µM | 3.64 µM | 8.22 µM | 12.5 µM | 13.4 µM | TGI [10]: 11.8 µM; TGI [11]: 7.43 µM; TGI [12]: 12.1 µM
CN(N=O)C(=O)NC(CCCCNC(=O)OCc1ccccc1)C(=O)OCc1ccccc1 (centres undefined) | 60.4 µM | > 100 µM | – | > 100 µM | 30.6 µM | > 100 µM | 91.2 µM | – | TGI [8]: 44.8 µM
CN(c1ccccc1)c1nc(=[N+](C)C)ss1 | > 100 µM | > 100 µM | > 100 µM | > 100 µM | > 100 µM | > 100 µM | > 100 µM | – | –
CCC(=O)N1C(=S)SC[C@H]1C(=O)OC | > 100 µM | > 100 µM | > 100 µM | > 100 µM | > 100 µM | > 100 µM | > 100 µM | – | –
O=C(c1ccccc1)[C@H]1Nc2ccc(Cl)cc2[C@H]2c3ccccc3O[C@H]21 | 32.3 µM | 30 µM | 24 µM | 28.3 µM | 28.2 µM | 38.7 µM | 39.5 µM | – | –
O=C1CN=C(c2ccccc2)c2ccncc2N1 | > 100 µM | > 100 µM | > 100 µM | > 100 µM | > 100 µM | > 100 µM | > 100 µM | – | TGI [8]: > 100 µM
CC(C)(C)CNCCO | – | – | – | – | – | – | – | > 100 µM | –
O=c1c2ccccc2c(=O)n2n1-c1cccc(c1)CSSCc1cccc-2c1 | > 100 µM | > 100 µM | > 100 µM | > 100 µM | > 100 µM | > 100 µM | > 100 µM | – | GI50 [8]: > 100 µM; TGI [8]: > 100 µM; GI50 [2]: > 100 µM; GI50 [3]: > 100 µM; GI50 [6]: > 100 µM; GI50 [7]: > 100 µM
